Where two headings read alike, the source gives them in different places.
Legend:
JAK1-JH2 domain = target: T1, JAK1-JH2 domain (Homo sapiens, UniProt P23458); experiment: Binding activity test for JH2 domain of JAK1 (Tb-antibody/tracer FRET)
T1 construct: IC50 on JH2 domain activity (nM)
Method in brief: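 Compounds tested as 11-point 3-fold serial dilutions against the JH2 domain in a Tb-antibody/tracer FRET binding format. Plates incubated 60 min at 25° C, then overnight at 4° C, before FRET reading.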

JAK1 = target: T2, JAK1 (Homo sapiens, UniProt P23458); experiment: JAK1 kinase activity, microfluidic assay (Caliper EZ Reader II); type: biochemical; conditions: JAK1 5 nM, 1 mM ATP
T2 construct: purchased Carna Biosciences
Method in brief: (§1)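 Human JAK1, JAK2 or TYK2 enzyme was used in 50 mM HEPES, 10 mM MgCl2, 2 mM DTT and 0.01% Brij35, tuned to 10% conversion of a FAM-labelled peptide. Threefold dilutions of compound (top 5 µM, 1% DMSO) were pre-incubated with enzyme for 10 min, and reactions were stopped with EDTA. Phosphorylation was read by microfluidic mobility shift, and IC50 came from percent-inhibition curves.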

JAK2 = target: T3, JAK2 (Homo sapiens, UniProt O60674); experiment: JAK2 kinase activity, microfluidic assay (Caliper EZ Reader II); type: biochemical; conditions: JAK2 0.125 nM, 1 mM ATP
T3 construct: purchased Carna Biosciences
Method in brief: as §1

TYK2 = target: T4, TYK2 (Homo sapiens, UniProt P29597); experiment: TYK2 kinase activity, microfluidic assay (Caliper EZ Reader II); type: biochemical; conditions: TYK2 1 nM, 1 mM ATP
T4 construct: purchased Carna Biosciences
Method in brief: as §1

pSTAT1 [1] = experiment: Phosphorylation inhibition of STAT in human whole blood, IFN-alpha stimulated (flow cytometry); type: cell-based; conditions: 20 min; human whole blood, IFN-alpha 20 mins, CD3 cells; read-out: IC50 on pSTAT1 inhibition in h WB
Method in brief: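 Freshly prepared PBMC or freshly collected whole blood stimulated with human Universal Type I IFN-alpha for 20 min, then fixed, permeabilized on ice and stained for CD3 and pSTAT1 (Y701). pSTAT1 read by flow cytometry; IC50 from 4-parameter logistic fit.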

pSTAT1 [2] = experiment: Phosphorylation inhibition of STAT in human PBMC, IFN-alpha stimulated (flow cytometry); type: cell-based; conditions: 20 min; human PBMC, IFN-alpha 20 mins, CD3 cells; read-out: IC50 on pSTAT1 inhibition in hPBMC
Experimental: Phosphorylation Inhibition of STAT in Human PBMC and Human Whole Blood Testing:
The inhibitory potential of test articles in human PBMC and human whole blood assay was evaluated by the method of flow cytometry.
IFN-alpha will activate JAK1 and TYK2 kinase in T cells by binding to IFN receptors, and then lead to phosphorylation of STAT1 and STAT2. The phosphorylated STAT1 enter nuclear and promote transcription and expression of IFN-gamma. To evaluate the efficacy of TYK2i in T cells, freshly prepared human PBMC or freshly collected human whole blood will be stimulated with certain unit of human IFN-alpha (Universal Type I IFN(1MU), R&D, 11200-2) for 20 mins in incubator. After stimulation, fix cells with Phosflow™ Fix Buffer I (BD, 557870), and then collect fixed cells by centrifugation (500 g, 8 min). Wash cells once with pre-cooled PBS, and then permeabilize cells with cold Perm Buffer III buffer (BD, 558050) for 45 mins on ice. Collect cells by centrifugation (600 g, 8 min) and washed twice with cold PBS. Stain cells with anti-human CD3 (FITC Mouse Anti-Human CD3, BD, 555332) and anti-pSTAT1_Y701(Alexa Fluor 647 Mouse Anti-Stat1 (pY701), BD, 612597) antibodies. Detect pSTAT1 by flow cytometry (CytoFlex S) and analyze data with FlowJo and GraphPad Prism 8 software. IC50 values of test articles were determined using 4-parameter logistic equation.

[3] = Microsomal metabolic stability assay; type: in vitro ADME; conditions: pH 7.4, 0.5 mg/mL protein, 1 μM compound
Method in brief: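 Test article at 1 μM with 0.5 mg/mL microsomal protein and 2 mM NADPH, in 100 mM potassium phosphate pH 7.4 with 1.0 mM EDTA at 37 °C. Sampled at 0–45 min and quantified by LC/MS/MS. T1/2 from the slope of ln % remaining vs time.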

[4] = dog liver microsomes, read-out: Dog LM Clint
[5] = dog liver microsomes, read-out: Dog LM T½
[6] = human liver microsomes, read-out: Human LM Clint
[7] = human liver microsomes, read-out: Human LM T½
[8] = rat liver microsomes, read-out: Rat LM Clint
[9] = rat liver microsomes, read-out: Rat LM T½

T1 sequence (P23458 583-855 limits assumed): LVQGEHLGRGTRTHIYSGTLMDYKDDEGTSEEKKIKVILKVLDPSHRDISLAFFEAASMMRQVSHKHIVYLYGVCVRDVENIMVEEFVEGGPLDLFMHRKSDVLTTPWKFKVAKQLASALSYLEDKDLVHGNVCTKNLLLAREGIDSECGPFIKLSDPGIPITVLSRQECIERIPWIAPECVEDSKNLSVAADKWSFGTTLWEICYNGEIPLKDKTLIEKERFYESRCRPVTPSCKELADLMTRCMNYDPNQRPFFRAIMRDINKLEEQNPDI
T3 sequence (O60674 whole entry): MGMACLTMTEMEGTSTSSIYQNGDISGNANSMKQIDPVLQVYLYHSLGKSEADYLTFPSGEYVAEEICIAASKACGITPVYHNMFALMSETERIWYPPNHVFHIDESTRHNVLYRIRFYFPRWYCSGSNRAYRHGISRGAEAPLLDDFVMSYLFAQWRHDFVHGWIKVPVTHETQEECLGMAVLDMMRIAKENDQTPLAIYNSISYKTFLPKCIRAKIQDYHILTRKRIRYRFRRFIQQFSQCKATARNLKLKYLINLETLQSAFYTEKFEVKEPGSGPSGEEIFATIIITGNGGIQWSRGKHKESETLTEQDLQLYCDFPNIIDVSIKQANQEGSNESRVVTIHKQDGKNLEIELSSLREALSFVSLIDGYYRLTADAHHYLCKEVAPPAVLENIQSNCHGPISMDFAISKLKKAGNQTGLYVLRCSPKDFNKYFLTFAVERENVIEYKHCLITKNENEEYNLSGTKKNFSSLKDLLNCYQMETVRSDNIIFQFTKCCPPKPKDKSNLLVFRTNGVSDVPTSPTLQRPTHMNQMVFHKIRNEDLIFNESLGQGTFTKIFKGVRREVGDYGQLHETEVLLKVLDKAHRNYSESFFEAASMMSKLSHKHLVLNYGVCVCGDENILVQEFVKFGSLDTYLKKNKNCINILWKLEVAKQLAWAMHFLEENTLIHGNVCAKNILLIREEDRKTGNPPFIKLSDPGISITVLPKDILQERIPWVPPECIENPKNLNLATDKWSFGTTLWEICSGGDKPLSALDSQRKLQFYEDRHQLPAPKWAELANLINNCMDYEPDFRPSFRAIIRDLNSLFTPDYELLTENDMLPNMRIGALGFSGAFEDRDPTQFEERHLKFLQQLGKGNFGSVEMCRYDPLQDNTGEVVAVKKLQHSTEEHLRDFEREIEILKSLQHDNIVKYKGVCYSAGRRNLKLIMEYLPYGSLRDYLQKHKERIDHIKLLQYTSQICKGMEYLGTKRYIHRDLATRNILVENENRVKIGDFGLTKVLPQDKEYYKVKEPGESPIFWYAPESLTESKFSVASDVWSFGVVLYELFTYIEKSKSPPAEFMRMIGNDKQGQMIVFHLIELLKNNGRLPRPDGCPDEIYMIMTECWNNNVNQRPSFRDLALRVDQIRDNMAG
T4 sequence (P29597 whole entry): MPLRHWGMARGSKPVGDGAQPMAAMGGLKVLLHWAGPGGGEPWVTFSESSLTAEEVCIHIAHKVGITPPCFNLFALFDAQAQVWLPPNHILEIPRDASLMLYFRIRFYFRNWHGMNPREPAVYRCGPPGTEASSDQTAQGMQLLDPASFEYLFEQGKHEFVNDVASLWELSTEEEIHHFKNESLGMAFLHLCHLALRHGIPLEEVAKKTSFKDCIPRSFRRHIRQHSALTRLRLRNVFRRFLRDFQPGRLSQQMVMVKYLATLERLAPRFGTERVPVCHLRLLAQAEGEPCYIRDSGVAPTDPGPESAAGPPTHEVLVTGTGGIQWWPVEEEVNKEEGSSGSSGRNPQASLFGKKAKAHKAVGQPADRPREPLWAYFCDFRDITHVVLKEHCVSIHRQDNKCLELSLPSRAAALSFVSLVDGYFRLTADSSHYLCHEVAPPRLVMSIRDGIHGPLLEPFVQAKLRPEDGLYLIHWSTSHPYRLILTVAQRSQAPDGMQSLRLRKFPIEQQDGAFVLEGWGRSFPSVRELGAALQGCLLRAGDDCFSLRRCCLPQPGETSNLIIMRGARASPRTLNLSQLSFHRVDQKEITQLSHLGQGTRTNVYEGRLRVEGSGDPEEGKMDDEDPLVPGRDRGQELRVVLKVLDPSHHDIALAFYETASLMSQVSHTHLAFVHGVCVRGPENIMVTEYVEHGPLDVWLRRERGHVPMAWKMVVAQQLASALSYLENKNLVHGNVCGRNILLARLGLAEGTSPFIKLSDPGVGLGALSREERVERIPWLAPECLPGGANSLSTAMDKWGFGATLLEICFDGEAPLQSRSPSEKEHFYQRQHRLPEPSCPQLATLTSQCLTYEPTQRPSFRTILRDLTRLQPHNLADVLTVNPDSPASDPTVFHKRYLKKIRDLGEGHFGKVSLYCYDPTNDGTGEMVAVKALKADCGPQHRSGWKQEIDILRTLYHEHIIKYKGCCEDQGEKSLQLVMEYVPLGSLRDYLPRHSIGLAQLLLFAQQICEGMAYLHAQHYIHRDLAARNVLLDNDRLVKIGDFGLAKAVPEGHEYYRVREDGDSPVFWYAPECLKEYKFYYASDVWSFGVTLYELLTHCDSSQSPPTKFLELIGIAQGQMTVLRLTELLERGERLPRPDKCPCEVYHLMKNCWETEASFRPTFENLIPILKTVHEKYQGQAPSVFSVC
T2 sequence (P23458 whole entry): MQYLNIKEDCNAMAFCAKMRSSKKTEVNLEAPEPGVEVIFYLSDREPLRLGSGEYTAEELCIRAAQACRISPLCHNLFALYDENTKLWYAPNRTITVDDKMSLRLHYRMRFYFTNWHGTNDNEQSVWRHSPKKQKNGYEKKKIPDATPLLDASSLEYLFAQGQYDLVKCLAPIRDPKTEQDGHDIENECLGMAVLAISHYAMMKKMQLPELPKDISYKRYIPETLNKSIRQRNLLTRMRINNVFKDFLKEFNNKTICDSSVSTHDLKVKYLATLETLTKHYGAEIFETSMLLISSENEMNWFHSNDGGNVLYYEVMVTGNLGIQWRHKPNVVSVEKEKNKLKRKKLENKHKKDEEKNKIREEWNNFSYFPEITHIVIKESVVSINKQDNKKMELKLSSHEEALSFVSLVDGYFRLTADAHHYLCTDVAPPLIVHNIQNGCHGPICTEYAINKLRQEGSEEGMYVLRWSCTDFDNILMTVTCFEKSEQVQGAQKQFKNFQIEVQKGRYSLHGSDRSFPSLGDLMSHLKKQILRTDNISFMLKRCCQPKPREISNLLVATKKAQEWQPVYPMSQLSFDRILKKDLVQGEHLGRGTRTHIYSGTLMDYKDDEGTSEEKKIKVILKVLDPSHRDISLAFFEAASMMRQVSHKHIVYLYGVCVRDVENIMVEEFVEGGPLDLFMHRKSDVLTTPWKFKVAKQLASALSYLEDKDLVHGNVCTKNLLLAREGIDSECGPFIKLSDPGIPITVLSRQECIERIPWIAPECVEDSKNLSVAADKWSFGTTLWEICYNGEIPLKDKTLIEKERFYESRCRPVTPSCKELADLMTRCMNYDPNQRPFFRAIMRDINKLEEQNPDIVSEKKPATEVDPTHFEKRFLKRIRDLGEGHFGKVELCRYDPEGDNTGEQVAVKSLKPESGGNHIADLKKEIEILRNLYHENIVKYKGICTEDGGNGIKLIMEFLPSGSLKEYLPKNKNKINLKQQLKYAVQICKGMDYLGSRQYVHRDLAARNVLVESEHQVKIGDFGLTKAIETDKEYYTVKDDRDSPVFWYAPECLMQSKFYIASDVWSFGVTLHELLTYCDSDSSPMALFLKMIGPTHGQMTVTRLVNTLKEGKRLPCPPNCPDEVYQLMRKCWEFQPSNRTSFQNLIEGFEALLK

IC50 (JAK1-JH2 domain) [nM]	IC50 (JAK1) [nM]	IC50 (JAK2) [nM]	IC50 (TYK2) [nM]	IC50 (pSTAT1 [1]) [nM]	IC50 (pSTAT1 [2]) [nM]	microsomal CLint at 1 μM [3, 4] [µL/min/mg]	half-life at 1 μM [3, 5] [min]	microsomal CLint at 1 μM [3, 6] [µL/min/mg]	half-life at 1 μM [3, 7] [min]	microsomal CLint at 1 μM [3, 8] [µL/min/mg]	half-life at 1 μM [3, 9] [min]	SMILES
9.89	> 5000	> 5000	> 5000	219	14.9	66.8	20.7	19.4	71.5	111	12.5	[2H]C([2H])([2H])NC(=O)c1cnc(NC(=O)C2CC2)cc1Nc1ccc2cnn(CC)c2c1OC [Example 44, 6-(Cyclopropanecarboxamido)-4-((1-ethyl-7-methoxy-1H-indazol-6-yl)amino)-N-(methyl-d3)nicotinamide]
20.8	–	–	–	395	–	48.6	28.5	40	34.6	87.4	15.9	[2H]C([2H])([2H])NC(=O)c1cnc(NC(=O)C2CC2)cc1Nc1ccc2cnn(CC(F)(F)F)c2c1OC [Example 129, 6-(Cyclopropanecarboxamido)-4-((7-methoxy-1-(2,2,2-trifluoroethyl)-1H-indazol-6-yl)amino)-N-(methyl-d3)nicotinamide]
12.4	–	–	–	1180	23.3	–	–	23.3	59.8	–	–	[2H]C([2H])([2H])NC(=O)c1cnc(Nc2ccc(F)cn2)cc1Nc1nn(C)c2ccn(CC)c(=O)c12 [Example 139, 4-((5-Ethyl-1-methyl-4-oxo-4,5-dihydro-1H-pyrazolo[4,3-c]pyridin-3-yl)amino)-6-((5-fluoropyridin-2-yl)amino)-N-(methyl-d3)nicotinamide]
18.6	> 5000	> 5000	> 5000	284	–	14.3	99.7	36.9	38	43.6	32	[2H]C([2H])([2H])NC(=O)c1cnc(NC(=O)C2CC2)cc1Nc1ccn2ncc(C#N)c2c1OC [Example 165, 4-((3-Cyano-4-methoxypyrazolo[1,5-a]pyridin-5-yl)amino)-6-(cyclopropanecarboxamido)-N-(methyl-d3)nicotinamide]
14.8	> 5000	> 5000	> 5000	102	–	–	–	–	–	–	–	[2H]C([2H])([2H])NC(=O)c1cnc(NC(=O)C2CC2)cc1Nc1ncc2cnn(CC)c2c1OC [Example 262, 6-(Cyclopropanecarboxamido)-4-((1-ethyl-7-methoxy-1H-pyrazolo[4,3-c]pyridin-6-yl)amino)-N-(methyl-d3)nicotinamide]

Reference: patent US20250115597A1, “TYK2 INHIBITORS AND COMPOSITIONS AND METHODS THEREOF” (LYNK PHARMACEUTICALS CO. LTD., priority 2021, published 2025)
